# Data taken from patent US10889611B2, “Sialyltransferase inhibitors and uses thereof” (Academia Sinica, priority 2015, dated 2021).
# Columns and labels:
# [1] = target: T1, α2,6(N)-sialyltransferases ST6GALI (Homo sapiens, UniProt P15907); test: Sialyltransferase inhibition assay, ST6GALI (reverse-phase HPLC); type: biochemical; details: for IC50: IC50 (μM) ST6GALI, α2,6-N-link
# T1 construct: purchased RnDSystems.com (R&D Systems)
# T1 sequence (P15907 1-406): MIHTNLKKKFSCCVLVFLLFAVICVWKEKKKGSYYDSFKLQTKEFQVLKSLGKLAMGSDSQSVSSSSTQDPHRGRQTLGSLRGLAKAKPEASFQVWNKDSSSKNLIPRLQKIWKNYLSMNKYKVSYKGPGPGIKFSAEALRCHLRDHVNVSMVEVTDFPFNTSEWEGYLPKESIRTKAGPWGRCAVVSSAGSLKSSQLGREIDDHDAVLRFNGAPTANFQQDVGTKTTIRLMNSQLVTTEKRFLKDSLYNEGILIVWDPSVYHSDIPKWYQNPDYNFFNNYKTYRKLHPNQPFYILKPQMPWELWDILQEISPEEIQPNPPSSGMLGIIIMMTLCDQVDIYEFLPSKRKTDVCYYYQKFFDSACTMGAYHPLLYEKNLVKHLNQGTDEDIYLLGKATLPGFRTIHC
# Procedure: (§1) The enzymes analyzed in the present study included rat ST3Gal(I), rat ST3Gal(III), and human ST6Gal(I). Rat ST3Gal(I) and rat ST3Gal(Ill), were purchased from Calbiochem®, while human ST6Gal(I) was purchased from RnDSystems.com.
# (§2) Sialyltransferase inhibition assay (α2,6-N-ST) was performed as follows: Sialyltransferase activity was determined by measuring the level of the end product of sialylated saccharides with reverse-phase HPLC. The assay mixtures contained the following components: 200 mM MES buffer; 100 mM NaCl; 0.5 mM EDTA; 0.01% Triton X-100; 1.4 mU ST6GALI; 25 μM Galβ1-4GlcNAc; 1 mM CMP-Neu5Ac and different concentration of Sialyltransferase inhibitors to a total volume of 50 μl. The assay mixture was incubated at 37° C. for 15 mins and then quenched by heating up to 101° C. for 10 mins. The sialylated product is resolved with reversed-phase HPLC. Kinetic data were obtained by fitting the initial rate data to the nonlinear regression equation.
# (§3) Effects of the present compounds on the activity of sialyltransferase, including α2,3(N)-sialyltransferase ST3GALIII, α2,6(N)-sialyltransferases ST6GALI, and α2,3(O)-sialyltransferase ST3GALI, were determined in accordance with procedures described in the “Materials and Methods” section, and results are summarized in Table 1.
# [2] = target: T2, α2,3(O)-sialyltransferase ST3GALI (Rattus norvegicus, UniProt Q6H8N0); test: Sialyltransferase inhibition assay, ST3GALI (reverse-phase HPLC); type: biochemical; details: measured at 500 μM; read-out: ST3GALI inhibition percentage
# T2 construct: purchased Calbiochem
# T2 sequence (Q6H8N0 1-340): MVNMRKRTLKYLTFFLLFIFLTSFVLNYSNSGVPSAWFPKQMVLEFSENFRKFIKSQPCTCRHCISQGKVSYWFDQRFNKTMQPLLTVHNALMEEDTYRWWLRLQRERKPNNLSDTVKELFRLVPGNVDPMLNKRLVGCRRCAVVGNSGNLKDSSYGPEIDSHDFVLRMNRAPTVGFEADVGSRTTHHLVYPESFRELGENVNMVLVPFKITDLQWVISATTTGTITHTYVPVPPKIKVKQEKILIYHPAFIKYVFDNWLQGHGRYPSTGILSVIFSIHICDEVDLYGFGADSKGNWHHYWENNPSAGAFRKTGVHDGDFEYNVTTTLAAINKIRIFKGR
# Procedure: as §1
# as §2, with “mU ST3GALI; 2.5 mM T-antigen;” for “mU ST6GALI; 25 μM Galβ1-4GlcNAc;”, “to 101′C” for “to 101° C.”, “product was” for “product is”, “resolved by” for “resolved with”
# as §3
melting point [°C],Compound,also measured
65 to 66,C[C@H](CCC(=O)OCCOCCOCCN=[N+]=[N-])C1CCC2C3CC[C@@H]4C[C@H](NC(=O)[C@H](Cc5ccccc5)Nc5ccc([N+](=O)[O-])c6nonc56)CC[C@]4(C)C3CC[C@@]21C (stereo partly drawn),–
84 to 85,C[C@H](CCC(=O)OCCOCCOCCN=[N+]=[N-])C1CCC2C3CC[C@@H]4C[C@H](NC(=O)[C@H](CCCCN)Nc5ccc([N+](=O)[O-])c6nonc56)CC[C@]4(C)C3CC[C@@]21C (stereo partly drawn),–
134 to 136,C[C@H](CCC(=O)O)C1CCC2C3CC[C@@H]4C[C@H](NC(=O)[C@H](CC(=O)O)Nc5ccc([N+](=O)[O-])c6nonc56)CC[C@]4(C)C3CC[C@@]21C (stereo partly drawn),–
69 to 70,C[C@H](Nc1ccc([N+](=O)[O-])c2nonc12)C(=O)N[C@@H]1CC[C@]2(C)C3CC[C@@]4(C)C(CCC4[C@H](C)CCC(=O)OCCOCCOCCN=[N+]=[N-])C3CC[C@@H]2C1 (stereo partly drawn),–
64 to 65,C[C@H](CCC(=O)OCCOCCOCCN=[N+]=[N-])C1CCC2C3CC[C@@H]4C[C@H](NC(=O)[C@H](CSC(C)(C)C)Nc5ccc([N+](=O)[O-])c6nonc56)CC[C@]4(C)C3CC[C@@]21C (stereo partly drawn),–
137 to 139,C[C@H](CCC(=O)O)C1CCC2C3CC[C@@H]4C[C@H](Nc5ccc([N+](=O)[O-])c6nonc56)CC[C@]4(C)C3CC[C@@]21C (stereo partly drawn),–
62 to 64,C[C@H](CCC(=O)OCCOCCOCCN=[N+]=[N-])C1CCC2C3CC[C@@H]4C[C@H](NC(=O)C5CCCN5c5ccc([N+](=O)[O-])c6nonc56)CC[C@]4(C)C3CC[C@@]21C (stereo partly drawn),–
158 to 160,C[C@H](CCC(=O)O)C1CCC2C3CC[C@@H]4C[C@H](NC(=O)[C@@H](N)CC(=O)O)CC[C@]4(C)C3CC[C@@]21C (stereo partly drawn),–
138 to 140,C[C@H](CCC(=O)O)C1CCC2C3CC[C@@H]4C[C@H](NS(=O)(=O)c5cccc6cccnc56)CC[C@]4(C)C3CC[C@@]21C (stereo partly drawn),–
140 to 142,C[C@H](CCC(=O)O)C1CCC2C3CC[C@@H]4C[C@H](Nc5ccc6ccccc6n5)CC[C@]4(C)C3CC[C@@]21C (stereo partly drawn),–
178 to 180,COc1cc2nc(Cl)nc(N[C@@H]3CC[C@]4(C)C5CC[C@@]6(C)C(CCC6[C@H](C)CCC(=O)O)C5CC[C@@H]4C3)c2cc1OC (stereo partly drawn),–
86 to 87,C[C@H](CCC(=O)OCCOCCOCCN=[N+]=[N-])C1CCC2C3CC[C@@H]4C[C@H](NC(=O)[C@H](Cc5c[nH]c6ccccc56)Nc5ccc([N+](=O)[O-])c6nonc56)CC[C@]4(C)C3CC[C@@]21C (stereo partly drawn),–
136 to 138,C[C@H](CCC(=O)O)C1CCC2C3CC[C@@H]4C[C@H](NS(=O)(=O)c5cccc6c(N(C)C)cccc56)CC[C@]4(C)C3CC[C@@]21C (stereo partly drawn),–
132 to 134,C[C@H](CCC(=O)O)C1CCC2C3CC[C@@H]4C[C@H](NS(=O)(=O)c5cc6ccccc6s5)CC[C@]4(C)C3CC[C@@]21C (stereo partly drawn),–
–,"C[C@H](CCC(=O)OCCOCCOCCOCCN=[N+]=[N-])C1CC[C@H]2[C@@H]3CC[C@@H]4C[C@H](OC(=O)[C@H](CC(=O)O)NC(=O)c5ccc([N+](=O)[O-])cc5)CC[C@]4(C)[C@H]3CC[C@]12C (stereo partly drawn) [Compound 9, (3S)-4-(((3R,5R,8R,9S,10S,13R,14S)-17-((R)-1-azido-13-oxo-3,6,9,12-tetraoxaheptadecan-16-yl)-10,13-dimethylhexadecahydro-1H-cyclopenta[a]phenanthren-3-yl)oxy)-3-(4-nitrobenzamido)-4-oxobutanoic acid]",selectivity ratio ST3GALI/ST6GALI [1]: >88; IC50 [1]: 5.7 ± 0.36 µM; inhibition at 500 µM [2]: 0%
128 to 130,C[C@H](CCC(=O)O)C1CCC2C3CC[C@@H]4C[C@H](NS(=O)(=O)c5c(Cl)ccc6nonc56)CC[C@]4(C)C3CC[C@@]21C (stereo partly drawn),–
–,"C[C@H](CCC(=O)OCCOCCOCCOCCOCCN=[N+]=[N-])C1CC[C@H]2[C@@H]3CC[C@@H]4C[C@H](OC(=O)[C@H](CC(=O)O)NC(=O)c5ccc([N+](=O)[O-])cc5)CC[C@]4(C)[C@H]3CC[C@]12C (stereo partly drawn) [Compound 10, (3S)-4-(((3R,5R,8R,9S,10S,13R,14S)-17-((R)-1-azido-16-oxo-3,6,9,12,15-pentaoxaicosan-19-yl)-10,13-dimethylhexadecahydro-1H-cyclopenta[a]phenanthren-3-yl)oxy)-3-(4-nitrobenzamido)-4-oxobutanoic acid]",selectivity ratio ST3GALI/ST6GALI [1]: >67; IC50 [1]: 7.45 ± 0.36 µM; inhibition at 500 µM [2]: 0%
77 to 78,C[C@H](CCC(=O)OCCOCCOCCN=[N+]=[N-])C1CCC2C3CC[C@@H]4C[C@H](NC(=O)[C@H](CCC(=O)O)Nc5ccc([N+](=O)[O-])c6nonc56)CC[C@]4(C)C3CC[C@@]21C (stereo partly drawn),–
78 to 79,C[C@H](CCC(=O)OCCOCCOCCN=[N+]=[N-])C1CCC2C3CC[C@@H]4C[C@H](NC(=O)[C@H](CCCNC(=N)N)Nc5ccc([N+](=O)[O-])c6nonc56)CC[C@]4(C)C3CC[C@@]21C (stereo partly drawn),–
118 to 120,C[C@H](CCC(=O)O)C1CCC2C3CC[C@@H]4C[C@H](Nc5nc6ccccc6nc5Cl)CC[C@]4(C)C3CC[C@@]21C (stereo partly drawn),–
68 to 69,C[C@H](CCC(=O)OCCOCCOCCN=[N+]=[N-])C1CCC2C3CC[C@@H]4C[C@H](NC(=O)[C@H](CS)Nc5ccc([N+](=O)[O-])c6nonc56)CC[C@]4(C)C3CC[C@@]21C (stereo partly drawn),–
120 to 122,C[C@H](CCC(=O)O)C1CCC2C3CC[C@@H]4C[C@H](NC5=C(Cl)C(=O)c6ccccc6C5=O)CC[C@]4(C)C3CC[C@@]21C (stereo partly drawn),–
72 to 73,C[C@H](CCC(=O)OCCOCCOCCN=[N+]=[N-])C1CCC2C3CC[C@@H]4C[C@H](NC(=O)[C@H](Cc5ccc(O)cc5)Nc5ccc([N+](=O)[O-])c6nonc56)CC[C@]4(C)C3CC[C@@]21C (stereo partly drawn),–

Compound,melting point [°C],also measured
"C[C@H](CCC(=O)OCCOCCN=[N+]=[N-])C1CC[C@H]2[C@@H]3CC[C@@H]4C[C@H](OC(=O)[C@H](CC(=O)O)NC(=O)c5ccc([N+](=O)[O-])cc5)CC[C@]4(C)[C@H]3CC[C@]12C (stereo partly drawn) [Compound 7, (3S)-4-(((3R,5R,8R,9S,10S,13R,14S)-17-((R)-5-(2-(2-azidoethoxy)ethoxy)-5-oxopentan-2-yl)-10,13-dimethylhexadecahydro-1H-cyclopenta[a]phenanthren-3-yl)oxy)-3-(4-nitrobenzamido)-4-oxobutanoic acid]",57 to 58,selectivity ratio ST3GALI/ST6GALI [1]: >74; IC50 [1]: 6.72 ± 0.3 µM; inhibition at 500 µM [2]: 0%
"C[C@H](CCC(=O)OCCOCCN=[N+]=[N-])C1CC[C@H]2[C@@H]3CC[C@@H]4C[C@H](OC(=O)[C@H](CC(=O)O)Nc5ccc([N+](=O)[O-])c6nonc56)CC[C@]4(C)[C@H]3CC[C@]12C (stereo partly drawn) [Compound 2, (3S)-4-(((3R,5R,8R,9S,10S,13R,14S)-17-((R)-5-(2-(2-azidoethoxy)ethoxy)-5-oxopentan-2-yl)-10,13-dimethylhexadecahydro-1H-cyclopenta[a]phenanthren-3-yl)oxy)-3-((7-nitrobenzo[c][1,2,5]oxadiazol-4-yl)amino)-4-oxobutanoic acid]",75 to 76,IC50 [1]: 3 to 7 µM
